Data reported in patent US20240207266A1, “METHODS FOR TREATING AND MONITORING PARKINSON'S DISEASE” (Denali Therapeutics Inc., priority 2021, published 2024).
Entries after “also recorded” stand apart in the source; their conditions may differ.

Experiments:
[1] = system: di-22:6-BMP; settings: monkeys; Fuji 2015, Baptista 2020; cited from earlier work
[2] = biological target: T1, pS935 LRRK2 (Homo sapiens, UniProt Q5S007); assay: pS935 LRRK2 in whole blood, MSD immunoassay (target engagement, Phase 1/1b); format: in vivo; settings: for reduction in pS935 compared with baseline: Phase 1 healthy volunteers
T1 construct: from tissue; host or cells: human whole blood from clinical study subjects (healthy subjects, and subjects with PD in Phase 1b)
T1 sequence (Q5S007 whole entry): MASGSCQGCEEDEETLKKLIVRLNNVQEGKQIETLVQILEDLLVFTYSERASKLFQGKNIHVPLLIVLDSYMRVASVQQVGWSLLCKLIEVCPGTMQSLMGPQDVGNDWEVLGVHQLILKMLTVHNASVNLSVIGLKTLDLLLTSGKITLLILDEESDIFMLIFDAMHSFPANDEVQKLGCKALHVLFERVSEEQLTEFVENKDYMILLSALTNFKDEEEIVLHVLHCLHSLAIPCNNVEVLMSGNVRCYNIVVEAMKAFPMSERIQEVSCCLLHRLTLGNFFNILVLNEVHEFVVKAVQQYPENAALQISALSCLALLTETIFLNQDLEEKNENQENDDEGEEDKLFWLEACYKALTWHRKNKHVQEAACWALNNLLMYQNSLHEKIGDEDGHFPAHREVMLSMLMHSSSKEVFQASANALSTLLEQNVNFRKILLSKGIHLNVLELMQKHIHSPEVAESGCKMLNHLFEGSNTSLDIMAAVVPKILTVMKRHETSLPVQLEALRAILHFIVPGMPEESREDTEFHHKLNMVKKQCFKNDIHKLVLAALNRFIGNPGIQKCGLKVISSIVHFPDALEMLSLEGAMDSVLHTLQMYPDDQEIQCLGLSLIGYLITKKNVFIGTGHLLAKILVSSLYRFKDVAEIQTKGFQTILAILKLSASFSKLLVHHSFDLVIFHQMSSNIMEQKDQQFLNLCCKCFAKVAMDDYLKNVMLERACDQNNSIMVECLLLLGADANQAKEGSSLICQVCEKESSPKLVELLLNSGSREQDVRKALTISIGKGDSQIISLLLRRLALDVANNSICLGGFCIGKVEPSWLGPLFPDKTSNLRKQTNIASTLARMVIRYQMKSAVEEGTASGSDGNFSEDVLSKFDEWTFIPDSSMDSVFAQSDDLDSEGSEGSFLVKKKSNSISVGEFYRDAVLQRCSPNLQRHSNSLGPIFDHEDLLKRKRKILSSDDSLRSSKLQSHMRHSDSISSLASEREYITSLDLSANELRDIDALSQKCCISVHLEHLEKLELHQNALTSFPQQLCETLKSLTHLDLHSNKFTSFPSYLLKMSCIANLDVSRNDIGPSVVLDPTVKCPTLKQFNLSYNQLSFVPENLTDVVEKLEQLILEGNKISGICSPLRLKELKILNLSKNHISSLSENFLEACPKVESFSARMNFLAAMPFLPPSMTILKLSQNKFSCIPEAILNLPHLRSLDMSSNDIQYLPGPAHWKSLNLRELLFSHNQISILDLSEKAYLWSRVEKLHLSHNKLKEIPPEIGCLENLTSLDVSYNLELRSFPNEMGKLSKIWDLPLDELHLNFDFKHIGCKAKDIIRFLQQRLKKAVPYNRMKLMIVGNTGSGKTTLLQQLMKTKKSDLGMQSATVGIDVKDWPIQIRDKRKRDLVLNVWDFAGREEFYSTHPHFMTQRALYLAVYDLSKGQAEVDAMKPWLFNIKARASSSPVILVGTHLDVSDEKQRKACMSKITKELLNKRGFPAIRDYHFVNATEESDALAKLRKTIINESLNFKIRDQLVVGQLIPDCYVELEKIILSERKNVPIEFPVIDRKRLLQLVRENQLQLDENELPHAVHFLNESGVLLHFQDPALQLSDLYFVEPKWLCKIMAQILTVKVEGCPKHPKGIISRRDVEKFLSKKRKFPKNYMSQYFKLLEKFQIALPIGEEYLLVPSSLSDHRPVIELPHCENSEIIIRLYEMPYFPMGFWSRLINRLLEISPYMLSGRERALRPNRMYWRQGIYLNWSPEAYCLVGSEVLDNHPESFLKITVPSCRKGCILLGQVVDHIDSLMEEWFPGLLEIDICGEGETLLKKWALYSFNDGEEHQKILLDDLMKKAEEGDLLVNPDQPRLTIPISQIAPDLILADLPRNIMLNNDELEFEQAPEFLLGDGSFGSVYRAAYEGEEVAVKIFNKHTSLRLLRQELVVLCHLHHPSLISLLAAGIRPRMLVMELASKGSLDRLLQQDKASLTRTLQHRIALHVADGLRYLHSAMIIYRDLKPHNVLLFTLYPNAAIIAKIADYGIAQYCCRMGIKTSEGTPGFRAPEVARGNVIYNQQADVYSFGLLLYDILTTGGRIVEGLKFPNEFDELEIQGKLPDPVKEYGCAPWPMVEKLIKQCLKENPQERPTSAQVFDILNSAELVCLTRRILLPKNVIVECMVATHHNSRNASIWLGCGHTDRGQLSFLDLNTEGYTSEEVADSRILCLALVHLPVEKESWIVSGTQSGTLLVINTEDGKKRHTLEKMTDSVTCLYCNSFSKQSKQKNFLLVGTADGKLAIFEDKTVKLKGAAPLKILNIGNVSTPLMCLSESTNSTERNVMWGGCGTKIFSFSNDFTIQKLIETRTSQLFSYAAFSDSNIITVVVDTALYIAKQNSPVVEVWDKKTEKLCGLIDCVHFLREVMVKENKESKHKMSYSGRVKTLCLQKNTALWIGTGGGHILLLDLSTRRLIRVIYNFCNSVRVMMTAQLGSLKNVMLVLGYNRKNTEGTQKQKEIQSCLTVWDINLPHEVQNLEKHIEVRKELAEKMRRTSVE
Description: Frozen human whole blood samples were thawed and directly lysed in 96-well plates (100 μl whole blood sample with 100 μl lysis buffer). Samples were spun down (2,500×g for 20 minutes at 4° C.) before MSD assay.
(§1) Capture antibodies were biotinylated using EZ-Link™ NHS-LC-LC-Biotin (Thermo Fisher, #21343), and detection antibodies were conjugated using Sulfo-TAG NHS-Ester (MSD, R31AA-1). 96-well (or 384-well) MSD GOLD Small Spot Streptavidin plates (MSD L45SSA-1) were coated with 25 μl (or 15 μl for 384 well plates) of capture antibody diluted in Diluent 100 (MSD, R50AA-2) for 1 hour at room temperature with 700 rpm shaking (1000 rpm for 384-well). After TBST wash (3×), 25 μl samples were added each well (10 μl for 384-well) and incubated at 4° C. overnight with agitation at 700 rpm. After TBST wash (3×), 25 μl of detection antibodies (15 μl for 384-well) were added each well diluted in TBST containing 25% MSD blocker A (MSD R93AA-1), together with rabbit (Rockland Antibodies D610-1000) and mouse gamma globin fraction (D609-0100). After 1 hour incubation at room temperature at 700 rpm, followed by TBST washes (3×), 150 μl MSD read buffer (MSD R92TC. 1:1 diluted with water) is added (35 μl for 384-well), and plates are read on the MSD Sector S 600.

[3] = Phase 1 first-in-human study, safety and tolerability, multiple-dose cohorts (Parts B, D, E); format: in vivo; settings: Part E, healthy subjects; procedural headache (250 mg BID), headache and malaise (40 mg BID)
[4] = CSF penetration, CSF/unbound plasma ratio (Phase 1/1b); format: in vivo, human
[5] = Phase 1b study in subjects with Parkinson's disease, safety and tolerability; format: in vivo, human
Text: This study was a double-blind, placebo-controlled, parallel-design Phase 1b study with 28-day dosing, administered once daily in Parkinson's disease patients.
GERD, gastroesophageal reflux disease: TEAE, treatment-emergent adverse event. ^aProcedural related includes (in order of frequency): procedural pain, post procedural contusion, post procedural hematoma, and procedural headache; ^bHypotension and orthostatic hypotension occurred in the same two patients.
A total of 36 patients with PD (26 active, 10 placebo) were treated with up to 300 mg QD for 28 days (FIG. 8).
This was a Phase 1b, randomized, placebo-controlled, double-blind study designed to determine the safety, tolerability, PK, and pharmacodynamics of compound I in subjects with PD. The conduct of this study has been completed and the clinical study report is in progress. In Part 1, subjects were administered compound I 80 mg or placebo QD (1:1 ratio) for 28 days (n=8). In Part 2, subjects were administered compound I 80 or 130 mg or placebo QD (1:2:1 ratio) for 28 days (n=17). In Part 3, subjects were administered compound I 300 mg or placebo QD (4:1 ratio) for 28 days (n=11).

[6] = Clinical safety across the Phase 1 and Phase 1b studies (conclusions); format: in vivo, human
Text: Based on the 2-fold increase in kinase activity associated with LRRK2 G2019S point mutations, reduction of whole-blood pS935 LRRK2 of ≥50% at trough in ≥50% of the study subjects represents a minimal pharmacodynamic target.
Safety data from Phase 1 first in human study in healthy subjects and Phase 1b study in subjects with PD are summarized below.
The most common TEAE in compound I-treated participants was headache.

[7] = system: BMP(22:6/22:6); assay: Urine BMP(22:6/22:6) (lysosomal engagement, Phase 1/1b); format: in vivo, human; settings: HVs and patients with PD
Text: BMP concentrations were normalized to creatinine concentrations (ng/mg).
Lysosomal lipid BMP 22:6/22:6 (referred to throughout the document as “BMP”) measured in urine represents a mechanistic marker of correction of the lysosomal pathways downstream of LRRK2. BMP is a lysosomal phospholipid found exclusively on the intraluminal vesicles of late endosomes and lysosomes (Bissig and Gruenberg, Cold Spring Harb Perspect Biol. 2013; 5(10):a016816). Individuals with genetic or drug-induced lysosomal function disorders, including those with G2019S LRRK2 mutations, have increased levels of urine BMP (Lecommandeur et al., J Lipid Res. 2017:58(7): 1306-14; Alcalay et al., Mov Disord. 2013; 28(14):1966-71).

[8] = Phase 1 first-in-human study, safety and tolerability, multiple-dose cohorts (Parts B, D, E); format: in vivo
Description: This double-blind, placebo-controlled Phase 1 study comprised single-ascending dose (SAD) and 10-day, 14-day, and 28-day multiple-ascending dose (MAD) parts in healthy volunteers. BID=twice daily; PBO=placebo; QD=once daily.
In a separate analysis of ≥1 TEAE in ≥2 subjects per treatment arm included the following additional TEAEs not listed above: ear pain (n=2; 105 mg QD 10-day cohort); nasopharyngitis (n=2; 225 mg QD 28-day cohort); asymptomatic COVID-19 (n=2; 400 mg BID 14-day cohort); somnolence (n=2; 250 mg BID 14-day cohort). 2 subjects also experienced presyncope associated with lumbar puncture (one each for 150 and 225 mg QD 28-day cohort).
In the Phase 1 study in healthy volunteers, the demographics of participants was as follows: • 184 HVs (145 active, 39 placebo) were treated with single or multiple once daily (QD) or twice daily (BID) doses up to 28 days in the following study Parts: • Part A (SAD; young HVs; n=48): 100% male and median age of 25 (range, 18-50) years; • Part B (10-day MAD; young HVs; n=80): 99% male and median age of 26.5 (range, 18-50) years; • Part C (SAD: elderly HVs; n=8): 50% male and median age of 69 (range, 67-74) years; • Part D (28-day MAD; young HVs; n=17): 100% male and median age of 29 (range, 18-39) years; and • E (14-day MAD: young HVs: n=31): 100% male and median age 30 (range 18-50) years.
This was a Phase 1, randomized, placebo-controlled, double-blind FIH study designed to determine the safety, tolerability. PK, and pharmacodynamics of compound I in healthy subjects.
Part B of this study was composed of sequential multiple ascending dose (MAD) cohorts. Healthy subjects were enrolled in 8 cohorts (Cohorts B1-B8; n=10/cohort) and were administered compound I 15, 30, 45, 70, 105, 150, 225, or 300 mg or placebo (4:1 ratio) QD for 10 days.
Part D was composed of a multiple-dose cohort (Cohort D1) of healthy subjects administered either compound I 225 mg (n=13) or placebo (n=4) QD for 28 days.
Part E is composed of sequential MAD cohorts. Healthy subjects in Cohort E1 were administered compound I 150 mg or placebo BID (4:1 ratio) for 14 days (n=9) and subjects in Cohort E2 were administered compound I 250 mg or placebo BID (4:1 ratio) for 14 days (n=11). Subjects in the ongoing Cohort E3 are being administered […] or placebo BID (4:1 ratio) for 14 days.

[9] = system: pT73 Rab10; assay: pRab10 in PBMCs, MSD immunoassay (pathway engagement, Phase 1/1b); format: in vivo, human
Description: Blood was collected into CPT-sodium heparin tubes (BD BDAM362780) and PBMCs were then isolated following the manufacturer's protocol. The PBMCs were pelleted by centrifugation at maximum speed and then resuspended in PBMC lysis buffer (1× cell lysis buffer [CST catalog #9803] with PhosSTOP phosphatase inhibitor [Roche 04906837001], complete protease inhibitor [Roche 04693159001], and Benzonase [Sigma E8263]). The lysates were held on ice for 20 minutes, followed by centrifugation at maximum speed at 4° C. for 20 minutes. Supernatants were aliquoted and stored at −80° C. for later immunoassay analysis.
as §1

[10] = subjects with PD, 80, 130 or 300 mg QD for 28 days
[11] = subjects with PD, 80-300 mg QD for 28 days
[12] = Part B, healthy subjects, 15-300 mg QD for 10 days
[13] = Part D, healthy subjects, 225 mg QD for 28 days
[14] = Part E, healthy subjects, BID for 14 days

CCNc1nc(Nc2cc(F)c(C(=O)N3CCOCC3)cc2OC)ncc1C(F)(F)F [GNE-7915]
urine di-22:6-BMP [1]: decreased

CCNc1nc(Nc2cc(C(C)(C)n3nccn3)nn2C2CC2)ncc1C(F)(F)F [compound I, N2-(3-(2-(2H-1,2,3-triazol-2-yl)propan-2-yl)-1-cyclopropyl-1H-pyrazol-5-yl)-N4-ethyl-5-(trifluoromethyl)pyrimidine-2,4-diamine]
target and pathway engagement ([2]; HVs and patients with PD, at doses generally well tolerated): robust target engagement and pathway engagement; also recorded: Robust target and pathway engagement | reduction of pS935 in whole blood ([2]; Phase 1b patients with PD, trough (predose), steady state (Day 28), all dose levels studied): robust reduction | reduction in pS935 compared with baseline ([2]; whole blood, trough (predose) at steady state (Day 10 Cohort B, Day 28 Cohort D, Day 14 Cohort E), highest dose): ≥ 80% | reduction in pS935 compared with baseline ([2]; whole blood, trough (predose) at steady state, lowest clinically relevant dose): ≥ 50% | pS935 reduced by at least ([2]; whole blood, about 70 to 800 mg/day, stated as an aspect of the method): 41-97% | subjects with severe TEAEs [3]: two subjects | CSF penetration based on the CSF/unbound plasma ratio [4]: high CSF penetration | SAEs or AESIs [5, 10]: No SAEs or AESIs were reported | tolerability [5, 10]: generally well tolerated | changes from baseline or trends in safety laboratory (including liver and renal function testing), ECG, neurological assessment, vital sign, PFT or C-SSRS results [5, 11]: No other clinically significant individual changes from baseline or notable trends | subjects who experienced ≥1 TEAE [5, 11]: 23 (88.5%) subjects (%) | subjects with moderate TEAEs [5, 11]: 5 (19%) subjects (%) | additional subjects with TEAEs of mild orthostatic hypotension / mild hypotension plus orthostatic hypotension ([5]; subjects with PD, 80 mg QD and 300 mg QD, resolved while on study drug): Two additional subjects | subjects with severe TEAEs ([5]; subjects with PD, hypotension (130 mg QD), headache (300 mg QD), both considered not related to study drug): Two subjects | most common TEAE ([6]; HVs and patients with PD): headache | changes in pulmonary or renal function ([6]; HVs and patients with PD, up to 28 days): no clinically meaningful changes | tolerability ([6]; broad range of doses, HVs and patients with PD, up to 28 days): generally well tolerated | changes in potential LRRK2 on-target renal or pulmonary function ([6]; healthy subjects and subjects with PD, up to 28 days of exposure): no apparent changes | safety and tolerability ([6]; over 200 subjects, doses up to 400 mg BID for 14 days in healthy volunteers or 225 mg for 28 days): safe and generally well tolerated | lysosomal lipid BMP 22:6 in urine [7]: dose-dependent reduction | presyncope associated with lumbar puncture ([8]; FIG. 9 legend, one each for 150 and 225 mg QD 28-day cohort): 2 subjects | changes in safety laboratory, vital signs, ECG, neurological examination, PFT or C-SSRS results [8, 12]: No clinically significant changes | deaths, other SAEs, AESIs or TEAEs leading to study drug discontinuation [8, 12]: No deaths, other SAEs (serious adverse events), AESIs (adverse events of special interests), or treatment-emergent adverse events (TEAEs) leading to study drug discontinuation were reported | subjects who experienced a severe TEAE [8, 12]: no subjects | subjects who experienced ≥1 TEAE [8, 12]: 56 (86.2%) subjects (%) | subjects who experienced ≥1 mild TEAE [8, 12]: 55 (84.6%) subjects (%) | subjects who experienced ≥1 moderate TEAE [8, 12]: 9 (13.8%) subjects (%) | tolerability ([8]; Part B, healthy subjects, multiple doses up to 300 mg QD for 10 days): generally well tolerated | changes in safety laboratory, vital sign, ECG, neurological examination, PFT or C-SSRS results [8, 13]: No other clinically significant changes | deaths, other SAEs or AESIs [8, 13]: No deaths, other SAEs, or AESIs were reported | subjects who experienced a moderate or severe TEAE [8, 13]: no subjects | subjects who experienced ≥1 TEAE [8, 13]: 10 (77%) subjects (%) | subjects who experienced ≥1 mild TEAE [8, 13]: 10 (77%) subjects (%) | tolerability [8, 13]: generally well tolerated | tolerability ([8]; Part E, Cohorts E1 and E2, healthy subjects, 150 and 250 mg BID for 14 days): generally well tolerated | subjects with moderate TEAEs ([8]; Part E, healthy subjects, 250 mg BID for 14 days): 2 subjects | SAEs or AESIs [8, 14]: No SAEs or AESIs were reported | changes in vital sign, ECG, telemetry, safety laboratory (including liver and renal function testing), PFT, neurological examination or C-SSRS results [8, 14]: No clinically significant changes | subjects who experienced 1 TEAE [8, 14]: 25 (100.0%) subjects (%) | study-drug related discontinuations ([8]; Part E, healthy subjects, one at 250 mg BID, one at 400 mg): Two study-drug related discontinuations | pRab10 reduced by at least ([9]; PBMC, about 70 to 800 mg/day, stated as an aspect of the method): 44-97% | reduction of phosphorylation of Rab10 (pRab10) in PBMCs ([9]; Phase 1 HVs, trough (predose), steady state (Day 10 Cohort B, Day 28 Cohort D, Day 14 Cohort E), highest dose): ≥ 70% | pRab10 in PBMCs ([9]; Phase 1b patients with PD, trough (predose), steady state, all doses): reduced

CNc1nc(Nc2cn(C(C)(C)C#N)nc2C)ncc1C(F)(F)F [GNE-0877]
urine di-22:6-BMP [1]: decreased
